Test results reported in article PMC2818973 (Journal of medicinal chemistry, 2010).

Conditions: mouse, in vivo, iv

## CC(=NNc1ccc(I)cn1)c1ccc2c(c1)C1C=CCC1C(c1cc3c(cc1Br)OCO3)N2 (stereo not shown) [Compound 9, N-{1-[4-(6-Bromo-benzo[1,3]dioxol-5-yl)-3a,4,5,9b-tetrahydro-3H-cyclopenta[c]quinolin-8-yl]-ethylidene}-N′-(5-iodo-pyridin-2-yl)-hydrazine]
  metabolism and clearance (in words): rapidly metabolized and eliminated via the hepatobiliary system
